Assays:
Phytophthora infestans = assay: microbe, parasite or virus in culture; format: cell-based; settings: 168 h, read-out: Observed effect (%)
Puccinia recondita [1] = assay: Protective activity against Puccinia recondita on wheat (brown rust of wheat) (greenhouse); format: in vivo; settings: single active compound, control 80% infection
Protocol: The expected efficacies of active compound combinations were determined using Colby's formula (Colby, S. R. “Calculating synergistic and antagonistic responses of herbicide combinations”, Weeds, 15, 20-22, 1967) and compared with the observed efficacies. Colby's formula: E=x+y−x·y/100 • E expected efficacy, expressed in % of the untreated control, when using the mixture of the active compounds A and B at the concentrations a and b; • x efficacy, expressed in % of the untreated control, when using the active compound A at the concentration a; • y efficacy, expressed in % of the untreated control, when using the active compound B at the concentration b. Micro Tests […]
(§1) The visually determined percentages of infected leaf areas were converted into efficacies in % of the untreated control.
The efficacy (E) is calculated as follows using Abbot's formula: Abbot's formula: E=(1−α/β)·100 • α corresponds to the fungicidal infection of the treated plants in % and • β corresponds to the fungicidal infection of the untreated (control) plants in % […]
Leaves of potted wheat seedlings were sprayed to runoff point with an aqueous suspension having the active compound concentration stated below. […] The extent of the rust fungus development on the leaves was then determined visually.

Puccinia recondita [2] = assay: Curative activity against brown rust of wheat caused by Puccinia recondita (greenhouse); format: in vivo; settings: single active compound, control 90% infection
Protocol: The expected efficacies of active compound combinations were determined using Colby's formula (Colby, S. R. “Calculating synergistic and antagonistic responses of herbicide combinations”, Weeds, 15, 20-22, 1967) and compared with the observed efficacies. Colby's formula: E=x+y−x·y/100 • E expected efficacy, expressed in % of the untreated control, when using the mixture of the active compounds A and B at the concentrations a and b; • x efficacy, expressed in % of the untreated control, when using the active compound A at the concentration a; • y efficacy, expressed in % of the untreated control, when using the active compound B at the concentration b. Micro Tests
The active compounds were separately or jointly prepared as a stock solution comprising 25 mg of active compound which was made up to 10 ml using a mixture of acetone and/or dimethyl sulfoxide and the emulsifier Uniperol® EL (wetting agent having emulsifying and dispersing action based on ethoxylated alkylphenols) in a volume ratio of solvent/emulsifier of 99 to 1. The mixture was then made up with water to 100 ml. This stock solution was diluted with the solvent/emulsifier/water mixture described to the concentration of active compound stated below.
Leaves of potted wheat seedlings were inoculated with a spore suspension of brown rust (Puccinia recondita). The pots were then placed in a chamber with high atmospheric humidity (90 to 95%) and 20 to 22° C. for 24 hours. During this time, the spores germinated and the germ tubes penetrated into the leaf tissue. The next day, the infected plants were sprayed to runoff point with the active compound solution described above at the active compound concentration stated below. After the spray coating had dried on, the test plants were cultivated in a greenhouse at temperatures between 20 and 22° C. and at 65 to 70% relative atmospheric humidity for 7 days. The extent of the rust fungus development on the leaves was then determined.
as §1
The efficacy (E) is calculated as follows using Abbot's formula: Abbot's formula: E=(1−α/β)·100 • α corresponds to the fungicidal infection of the treated plants in % and • β corresponds to the fungicidal infection of the untreated (control) plants in %
An efficacy of 0 means that the infection level of the treated plants corresponds to that of the untreated control plants; an efficacy of 100 means that the treated plants were not infected.

Row | SMILES | inhibition of growth at 4 ppm (Phytophthora infestans) [%] | inhibition of growth at 1 ppm (Phytophthora infestans) [%] | inhibition of growth at 16 ppm (Phytophthora infestans) [%] | also measured
1 | CCCCCCCCc1c(C)nc2ncnn2c1N [7-4] | 45 | – | – | –
2 | COc1cc(-c2ccccc2NC(=O)c2cn(C)nc2C(F)(F)F)c(F)cc1Cl [Compound 3-1, N-(2′-fluoro-4′-chloro-5′-methoxybiphenyl-2-yl)-3-trifluoromethyl-1-methyl-1H-pyrazole-4-carboxamide] | 0 | 0 | 4 | –
3 | Cc1nc2ncnn2c(N)c1-c1ccc(Cl)c(Cl)c1 [7-1] | – | – | – | Observed effect (%) (Puccinia recondita [1]; 1 ppm): 0%
4 | Cn1cc(C(=O)Nc2ccccc2-c2cc(F)c(F)c(F)c2)c(C(F)(F)F)n1 [Compound 3-3, N-(3′,4′,5′-trifluorobiphenyl-2-yl)-3-trifluoromethyl-1-methyl-1H-pyrazole-4-carboxamide] | 0 | 0 | – | inhibition of growth at 0.25 ppm (Phytophthora infestans): 0%
5 | CC(CCc1c(C(F)(F)F)nc2ncnn2c1N)CC(C)(C)C (stereo not shown) [7-12] | – | – | 66 | –
6 | COc1cc(-c2ccccc2NC(=O)c2cn(C)nc2C(F)F)c(F)cc1Cl [Compound 3-6, N-(2′-fluoro-4′-chloro-5′-methoxybiphenyl-2-yl)-3-difluoromethyl-1-methyl-1H-pyrazole-4-carboxamide] | 3 | 0 | 18 | –
7 | Cn1cc(C(=O)Nc2ccccc2-c2ccc(F)c(F)c2F)c(CF)n1 [Compound 3-14, N-(2′,3′,4′-trifluorobiphenyl-2-yl)-3-fluoromethyl-1-methyl-1H-pyrazole-4-carboxamide] | 11 | 3 | 18 | –
8 | Cn1cc(C(=O)Nc2ccccc2-c2ccc(F)c(F)c2F)c(C(F)(F)F)n1 [Compound 3-7, N-(2′,3′,4′-trifluorobiphenyl-2-yl)-3-trifluoromethyl-1-methyl-1H-pyrazole-4-carboxamide] | 4 | 1 | – | –
9 | CCCCCCCCc1c(CC)nc2nc(N)nn2c1N [7-5] | 73 | – | – | inhibition of growth at 0.25 ppm (Phytophthora infestans): 27%; Observed effect (%) (Puccinia recondita [2]; 1 ppm): 0%
10 | CCCCCCCCc1nc2ncnn2c(N)c1CC [7-6] | – | – | – | Observed effect (%) (Puccinia recondita [2]; 1 ppm): 0%
11 | CCc1nc2ncnn2c(N)c1CCC(C)CC(C)(C)C (stereo not shown) [7-8] | – | – | – | Observed effect (%) (Puccinia recondita [2]; 1 ppm): 0%
12 | Cn1cc(C(=O)Nc2ccccc2-c2cc(F)c(F)c(F)c2)c(CF)n1 [Compound 3-11, N-(3′,4′,5′-trifluorobiphenyl-2-yl)-3-fluoromethyl-1-methyl-1H-pyrazole-4-carboxamide] | – | 7 | 9 | –
13 | Cn1cc(C(=O)Nc2ccccc2-c2cc(F)c(F)c(F)c2)c(C(F)F)n1 [Compound 3-9, N-(3′,4′,5′-trifluorobiphenyl-2-yl)-3-difluoromethyl-1-methyl-1H-pyrazole-4-carboxamide] | 9 | – | – | Observed effect (%) (Puccinia recondita [2]; 0.25 ppm): 0%; Observed effect (%) (Puccinia recondita [1]; 0.25 ppm): 50%
14 | Cc1nc2ncnn2c(N)c1CCC(C)CC(C)(C)C (stereo not shown) [7-3] | – | 31 | – | –
15 | CCCCCCCCc1c(CCC)nc2ncnn2c1N [7-9] | 58 | 20 | – | –
16 | Cn1cc(C(=O)Nc2ccccc2-c2cc(F)c(F)cc2F)c(C(F)F)n1 [Compound 3-10, N-(2′,4′,5′-trifluorobiphenyl-2-yl)-3-difluoromethyl-1-methyl-1H-pyrazole-4-carboxamide] | 6 | 1 | – | –
17 | Cc1cc(-c2ccccc2NC(=O)c2cn(C)nc2C(F)F)c(F)cc1Cl [Compound 3-8, N-(2′-fluoro-4′-chloro-5′-methylbiphenyl-2-yl)-3-difluoromethyl-1-methyl-1H-pyrazole-4-carboxamide] | 10 | – | 20 | –
